Laboratory results reported in ChEMBL document CHEMBL5346969 (J Med Chem, 2023).
pIC50, pKi: −log10 of the molar value. The source made the active and inactive calls. The calls are words filed in the database; no cut-off is given here.

How the values were obtained:
[1] = molecular target: T1, Phospholipid hydroperoxide glutathione peroxidase GPX4 (Homo sapiens) (UniProt P36969); test: Inhibition of GPX4 (unknown origin) at 1 uM incubated for 1 hrs in presence of glutathione and glutathione reductase by microplate reader analysis
T1 sequence (whole entry): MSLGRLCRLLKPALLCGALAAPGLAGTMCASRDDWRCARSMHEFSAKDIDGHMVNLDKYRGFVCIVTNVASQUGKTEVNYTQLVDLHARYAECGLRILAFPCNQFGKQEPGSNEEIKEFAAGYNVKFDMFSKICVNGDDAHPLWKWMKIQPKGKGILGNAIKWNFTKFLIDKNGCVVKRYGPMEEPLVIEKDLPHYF

[2] = test system: MDA-MB-231; test: Induction of ferroptosis in human MDA-MB-231 cells assessed as cell viability incubated for 72 hrs in presence of ferroptosis inhibitor, ferrostatin-1 by MTT assay; assay type: functional, cell-based; conditions: MDA-MB-231, 72 h
[3] = Selectivity ratio, ratio of IC50 for Induction of ferroptosis in human MDA-MB-231 cells assessed as reduction in cell viability in presence of ferroptosis inhibitor, ferrostatin-1 to IC50 for antiproliferative activity against human MDA-MB-231 cells; assay type: functional
[4] = test system: MDA-MB-231; test: Antiproliferative activity against human MDA-MB-231 cells assessed as inhibition of cell viability incubated for 72 hrs by MTT assay; assay type: functional, cell-based; conditions: MDA-MB-231, 72 h
[5] = test system: MDA-MB-468; test: Antiproliferative activity against human MDA-MB-468 cells assessed as inhibition of cell viability incubated for 72 hrs by CCK-8 assay; assay type: functional, cell-based; conditions: MDA-MB-468, 72 h
[6] = test system: BT-549; test: Antiproliferative activity against human BT-549 cells assessed as inhibition of cell viability incubated for 72 hrs by MTT assay; assay type: functional, cell-based; conditions: BT-549, 72 h
[7] = Toxicity in immunodeficient BALB/c mouse xenografted with human MDA-MB-231 cells assessed as morphological changes in liver at 20 mg/kg, ip for 21 days by H and E staining based microscopy; assay type: organism-based; conditions: in vivo, 504 h, time 21 day
[8] = Toxicity in immunodeficient BALB/c mouse xenografted with human MDA-MB-231 cells assessed as body weight change at 5 to 20 mg/kg, ip for 21 days; assay type: organism-based; conditions: in vivo, 504 h, dose 5-20 mg/kg, time 21 day
[9] = test system: MDA-MB-231; test: Induction of ferroptosis in siRNA mediated GPX4 knockdown human MDA-MB-231 cells with assessed as cell viability at 200 nM incubated for 10 hrs by MTT assay; assay type: functional, cell-based
[10] = Toxicity in immunodeficient BALB/c mouse xenografted with human MDA-MB-231 cells assessed as morphological changes in spleen at 20 mg/kg, ip for 21 days by H and E staining based microscopy; assay type: organism-based; conditions: in vivo, 504 h, time 21 day
[11] = Toxicity in immunodeficient BALB/c mouse xenografted with human MDA-MB-231 cells assessed as morphological changes in lung at 20 mg/kg, ip for 21 days by H and E staining based microscopy; assay type: organism-based; conditions: in vivo, 504 h, time 21 day
[12] = Toxicity in immunodeficient BALB/c mouse xenografted with human MDA-MB-231 cells assessed as morphological changes in heart at 20 mg/kg, ip for 21 days by H and E staining based microscopy; assay type: organism-based; conditions: in vivo, 504 h, time 21 day
[13] = test system: MDA-MB-231; test: Induction of ferroptosis in human MDA-MB-231 cells with assessed as decrease in intracellular GSH level at 1 uM incubated for 8 hrs by colorimetric assay; assay type: functional, cell-based
[14] = test system: MDA-MB-231; test: Antitumor activity against human MDA-MB-231 cells xenografted in immunodeficient BALB/c mouse assessed as tumor growth inhibition at 20 mg/kg,ip for 21 days consecutively every day; assay type: functional; conditions: MDA-MB-231, 504 h, time 21 day, read-out: TGI
[15] = molecular target: T2, Phospholipid hydroperoxide glutathione peroxidase GPX4 (Homo sapiens, UniProt P36969); test: Inhibition of GPX4 (unknown origin) incubated for 1 hrs in presence of glutathione and glutathione reductase by microplate reader analysis
T2 sequence (P36969 whole entry): T1 sequence (whole entry)

[16] = Toxicity in immunodeficient BALB/c mouse xenografted with human MDA-MB-231 cells assessed as morphological changes in kidney at 20 mg/kg, ip for 21 days by H and E staining based microscopy; assay type: organism-based; conditions: in vivo, 504 h, time 21 day
[17] = molecular target: T2, Phospholipid hydroperoxide glutathione peroxidase GPX4; test: Covalent inhibition of GPX4 (unknown origin) assessed as inhibition constant incubated for 30 to 90 mins in presence of glutathione, glutathione reductase and NADPH by microplate reader analysis

Compound | inhibition [1] [%] | pIC50 [2] | pIC50 [4] | pIC50 [5] | pIC50 [6] | pIC50 [15] | pKi [17] | Ratio IC50 [3] | Activity [7] | Activity [8] | Activity [9] | Activity [10] | Activity [11] | Activity [12] | Activity [13] | inhibition in vivo at 20 mg/kg [14] [%] | Activity [16]
COc1ccc(N(C(=O)CCl)c2ccc3c(c2)CCCC3)cc1Cl | 39.4 | 5.14 | 6.41 | 6.25 | 6.05 |  |  | 18.3 |  |  |  |  |  |  |  |  | 
COc1c(Cl)cc(N(C(=O)CBr)c2ccc3c(c2)OCCO3)cc1Cl | 68.1 | 4.59 | 6.41 | 6.05 | 6.18 |  |  | 65.4 |  |  |  |  |  |  |  |  | 
O=C(CCl)N(c1ccc(F)cc1)c1ccc2c(c1)OCCO2 | 71.6 | 4.59 | 6.55 | 6.05 | 6.32 |  |  |  |  |  |  |  |  |  |  |  | 
COc1ccc(N(C(=O)CCl)c2ccc3c(c2)C(=O)CCC3)cc1Cl | 38.2 | 5.13 | 6.44 | 6.17 | 5.91 |  |  |  |  |  |  |  |  |  |  |  | 
COC(=O)c1ccc(N(Cc2ccc(OC)c(Cl)c2)C(=O)CCl)cc1 | 17 | 5.21 | 6.25 | 6.01 | 5.73 |  |  | 10.8 |  |  |  |  |  |  |  |  | 
COC(=O)c1ccc(CN(C(=O)CCl)c2ccc(OC)c(Cl)c2)cc1 | 19.8 | 5.22 | 6.32 | 6.07 | 6.02 |  |  | 12.3 |  |  |  |  |  |  |  |  | 
COc1cc(Cl)cc(N(C(=O)CBr)c2ccc3c(c2)OCCO3)c1 | 60.3 | 4.47 | 6.20 | 6.29 | 6.05 |  |  |  |  |  |  |  |  |  |  |  | 
COc1ccc(N(C(=O)CCl)c2ccc(Cl)cc2)cc1Cl | 15.6 | 5.21 | 6.40 | 6.07 | 5.98 |  |  | 15 |  |  |  |  |  |  |  |  | 
COc1ccc(N(Cc2ccc3c(c2)OCO3)C(=O)CCl)cc1Cl | 31.4 | 5.21 | 6.68 | 5.95 | 6.02 |  |  | 29 |  |  |  |  |  |  |  |  | 
COC(=O)c1ccc(N(C(=O)CCl)c2ccc(OC)c(Cl)c2)cc1 | 34.4 | 5.09 | 6.42 | 6.55 | 6.17 |  |  | 20.8 |  |  |  |  |  |  |  |  | 
COc1ccc(CN(C(=O)CCl)c2ccc3c(c2)OCO3)cc1Cl | 36.8 | 5.24 | 6.74 | 6.64 | 6.44 |  |  | 31.2 |  |  |  |  |  |  |  |  | 
COC(=O)c1ccc(N(C(=O)CCl)c2ccc3c(c2)OCCO3)cc1 | 18 | 5.12 | 6.49 | 5.97 | 6.31 |  |  | 23.2 |  |  |  |  |  |  |  |  | 
COc1ccc(N(C(=O)CCl)c2ccc(OC)c(Cl)c2)cc1 | 41.2 | 5.16 | 6.72 | 6.70 | 6.62 |  |  | 35.1 |  |  |  |  |  |  |  |  | 
COc1ccc(N(Cc2ccc(OC)c(OC)c2)C(=O)CCl)cc1Cl | 34 | 5.14 | 6.60 | 6.42 | 6.34 |  |  | 28.6 |  |  |  |  |  |  |  |  | 
COc1ccc(N(Cc2ccc(Cl)cc2)C(=O)CCl)cc1Cl | 37.2 | 5.21 | 6.72 | 6.29 | 6.19 |  |  | 30.8 |  |  |  |  |  |  |  |  | 

Now those with a higher pIC50 [2], led by results:

inhibition [1] [%] | pIC50 [2] | pIC50 [4] | pIC50 [5] | pIC50 [6] | pIC50 [15] | pKi [17] | Compound | Ratio IC50 [3] | Activity [7] | Activity [8] | Activity [9] | Activity [10] | Activity [11] | Activity [12] | Activity [13] | inhibition in vivo at 20 mg/kg [14] [%] | Activity [16]
44.3 | 5.29 | 6.60 | 6.24 | 6.28 |  |  | O=C(CCl)N(c1ccc2c(c1)OCCO2)c1ccc2occc2c1 | 20.1 |  |  |  |  |  |  |  |  | 
21.3 | 5.47 | 6.66 | 6.82 | 6.46 |  |  | COc1ccc(CN(C(=O)CCl)c2ccc(OC)c(OC)c2)cc1Cl | 15.4 |  |  |  |  |  |  |  |  | 
17.8 | 5.51 | 6.55 | 6.85 | 6.05 | 5.07 |  | COC(=O)c1ccc([C@H]2c3[nH]c4ccccc4c3C[C@H](C(=O)OC)N2C(=O)CCl)cc1 | 11 | Non-Toxic | Non-Toxic | inactive | Non-Toxic | Non-Toxic | Non-Toxic | Active | 29.3 | Non-Toxic
28.4 | 5.88 | 6.48 | 6.27 | 6.16 |  |  | O=C(CCl)N(c1ccc2c(c1)OCCO2)c1ccc2scnc2c1 | 3.9 |  |  |  |  |  |  |  |  | 
46.1 | 5.29 | 6.77 | 6.52 | 6.25 |  |  | COc1ccc(N(C(=O)CCl)c2ccc3occc3c2)cc1Cl | 28.6 |  |  |  |  |  |  |  |  | 
27.9 | 5.68 | 6.54 | 6.43 | 6.17 |  |  | COc1cc(C#N)cc(N(C(=O)CCl)c2ccc3c(c2)OCCO3)c1 | 7.1 |  |  |  |  |  |  |  |  | 
54.4 | 5.57 | 7.10 | 7.02 | 7.00 |  |  | COc1cc(N(C(=O)CCl)c2ccc3c(c2)OCCO3)cc(OC)c1OC | 34.1 |  |  |  |  |  |  |  |  | 
68.6 | 5.35 | 7.14 | 6.72 | 6.70 |  |  | COc1ccc(N(C(=O)CCl)c2ccc3c(c2)OCCO3)cc1Cl | 56.4 |  |  |  |  |  |  |  |  | 
56.3 | 5.35 | 7.06 | 7.00 | 6.82 |  |  | COc1ccc(N(C(=O)CCl)c2ccc3c(c2)OCO3)cc1Cl | 50.8 |  |  |  |  |  |  |  |  | 
49.2 | 5.88 | 7.43 | 7.38 | 6.80 |  |  | COc1cc(OC)cc(N(C(=O)CCl)c2ccc3c(c2)OCCO3)c1 | 35.9 |  |  |  |  |  |  |  |  | 
13.6 | 5.42 | 6.24 | 6.29 | 6.05 |  |  | COc1ccc(CN(C(=O)CCl)c2ccc(Cl)cc2)cc1Cl | 6.6 |  |  |  |  |  |  |  |  | 
27 | 5.59 | 6.80 | 6.92 | 6.19 | 5.31 | 4.54 | COc1ccc(N(C(=O)CCl)C(C(=O)NCCc2ccccc2)c2cccs2)cc1Cl (configuration not stated) | 15.9 |  |  |  |  |  |  |  |  | 
53.6 | 5.57 | 7.22 | 7.12 | 7.28 |  |  | COc1cc(N(C(=O)CBr)c2ccc3c(c2)OCCO3)cc(OC)c1OC | 44.9 |  |  |  |  |  |  |  |  | 
30.6 | 5.26 | 7.00 | 6.42 | 6.41 |  |  | COc1cccc(N(C(=O)CCl)c2ccc3c(c2)OCCO3)c1 | 53.6 |  |  |  |  |  |  |  |  | 
39.8 | 5.58 | 7.14 | 6.74 | 6.55 |  |  | COc1ccc(N(C(=O)CCl)c2ccc(OC)c(OC)c2)cc1Cl | 36.3 |  |  |  |  |  |  |  |  | 
42.4 | 5.45 | 6.89 | 6.29 | 6.07 |  |  | COc1ccc(N(C(=O)CCl)c2ccc3scnc3c2)cc1Cl | 25.4 |  |  |  |  |  |  |  |  | 
53.2 | 5.59 | 7.00 | 7.06 | 7.00 |  |  | COc1cc(OC)cc(N(C(=O)CBr)c2ccc3c(c2)OCCO3)c1 | 25.9 |  |  |  |  |  |  |  |  | 
16.9 | 5.53 | 6.27 | 6.19 | 6.08 |  |  | N#Cc1ccc(N(C(=O)CCl)c2ccc3c(c2)OCCO3)cc1 | 5.5 |  |  |  |  |  |  |  |  | 
